One test deals with PDE5 (Homo sapiens (Human), UniProt O76074). As to the kind of experiment: PDE5 inhibition assay (BPS PDE assay kit, fluorescence polarization). It counts as biochemical. As to the method: Materials and Methods: PDE5 inhibition was assayed at BPS Bioscience (San Diego, Calif.) using BPS PDE assay kits (BPS Catalog number 60300, enzyme lot 090810). Test compounds were supplied as liquid solutions of 10 mM concentration in DMSO. Sildenafil, used as a standard was dissolved in DMSO. Intermediate dilutions were 10% DMSO in PDE assay buffer and tests at ranges from 0.1 to 100 nM. 0.1 ng of enzyme was used per reaction, and the substrate was 100 nM FAM-cGMP.
Assay conditions: A series of dilutions of the test compounds were prepared with 10% DMSO in assay buffer and 5 μl of the dilution was added to a 50 μl reaction so that the final concentration of DMSO is 1% in all of reactions. The enzymatic reactions were conducted at room temperature for 60 minutes in a 50 μl mixture containing PDE assay buffer, 100 nM FAM-cAMP or 100 nM FAM-cGMP, a PDE enzyme, and the test compound. After the enzymatic reaction, 100 μl of a binding solution (1:100 dilution of the binding agent with the binding agent diluent) was added to each reaction and the reaction was performed at room temperature for 60 minutes. Fluorescence intensity was measured at an excitation of 485 nm and an emission of 528 nm using a Tecan Infinite M1000 microplate reader.
(§1) Data analysis: PDE activity assays were performed in duplicate at each concentration. Fluorescence intensity is converted to fluorescence polarization using the Tecan Magellan6 software. The fluorescence polarization data were analyzed using the computer software, Graphpad Prism. The fluorescence polarization (FPt) in absence of the compound in each data set was defined as 100% activity. In the absence of PDE and the compound, the value of fluorescent polarization (FPb) in each data set was defined as 0% activity. The percent activity in the presence of the compound was calculated according to the following equation: % activity=(FP−FPb)/(FPt−FPb)×100%, where FP=the fluorescence polarization in the presence of the compound.
The values of % activity versus a series of compound concentrations were then plotted using non-linear regression analysis of Sigmoidal dose-response curve generated with the equation Y=B+(T−B)/1+10^((LogEC50-X)×Hill Slope), where Y=percent activity, B=minimum percent activity, T=maximum percent activity, X=logarithm of compound and Hill Slope=slope factor or Hill coefficient. The IC50 value was determined by the concentration causing a half-maximal percent activity.
A general note: Fluorescence polarisation rises when a labelled molecule tumbles more slowly, as on binding a larger partner.

The next test relates to PDE6. As to the kind of experiment: PDE6 inhibition assay (fluorescence polarization). It counts as biochemical. The settings on record: Table 1. As to the method: The enzymatic reactions were conducted at room temperature for 60 minutes in a 50 μl mixture containing PDE assay buffer, 100 nM FAM-cAMP or 100 nM FAM-cGMP, a PDE enzyme, and the test compound. After the enzymatic reaction, 100 μl of a binding solution (1:100 dilution of the binding agent with the binding agent diluent) was added to each reaction and the reaction was performed at room temperature for 60 minutes. Fluorescence intensity was measured at an excitation of 485 nm and an emission of 528 nm using a Tecan Infinite M1000 microplate reader.
as §1, with “Fluorescence” for “Data analysis: PDE activity assays were performed in duplicate at each concentration. Fluorescence”
The IC50 value was determined by the concentration causing a half-maximal percent activity.

The test system of the next test is APP/PS1 mice. As to the kind of experiment: Preliminary studies with sildenafil in APP/PS1 mice. It counts as in vivo. The settings on record: persist beyond the administration of the inhibitor. As for the experimental part: Slices from transgenic mice treated with the compound had 226.23%±6.72 potentiation compared to 164.12%±10.37 in slices from vehicle-treated transgenic mice (FIG. 3). Residual potentiation recorded during the last 5 minutes of a 2 hr recording following tetanic stimulation of the Schaffer collateral fibers at the CA3-CA1 connection.

Seven molecules from patent US10626113B2, “Phosphodiesterase inhibitors and uses thereof” (THE TRUSTEES OF COLUMBIA UNIVERSITY IN THE CITY OF NEW YORK, priority 2012, dated 2020) can be followed below.

The IC50 is the concentration needed to halve the response being measured. Read a high IC50 as weaker potency. At PDE5 (Table 1, 100 nM FAM-cGMP), `COc1ccc(CNc2c3c(nc4ccc(Br)cc24)CCN(C)C3)cc1Cl` [A, 8-bromo-N-(3-chloro-4-methoxybenzyl)-2-methyl-1,2,3,4-tetrahydrobenzo[b][1,6]naphthyridin-10-amine] gave an IC50 of 21.6 nM.

Turning to `CCc1cc(C#N)cc2c(NCc3ccc(OC)c(Cl)c3)c3c(nc12)CCN(C)C3` [D, 10-[(3-chloro-4-methoxybenzyl)amino]-6-ethyl-2-methyl-1,2,3,4-tetrahydrobenzo[b][1,6]naphthyridine-8-carbonitrile], the IC50 was 0.07 nM against PDE5 (Table 1, 100 nM FAM-cGMP) and 30 nM with PDE6.

Consider `COc1ccc(CNc2c3c(nc4ccc(C#N)cc24)NCCNC3=O)cc1Cl` [E, 6-[(3-chloro-4-methoxybenzyl)amino]-5-oxo-2,3,4,5-tetrahydro-1H-[1,4]diazepino[5,6-b]quinoline-8-carbonitrile], for which the half-maximal inhibitory concentration (IC50) against PDE5 (Table 1, 100 nM FAM-cGMP) worked out at 43.8 nM; in the test on PDE6, 6620 nM.

On to `COc1ccc(CNc2c3c(nc4ccc(Br)cc24)CCNC3)cc1Cl` [F, 8-bromo-N-(3-chloro-4-methoxybenzyl)-1,2,3,4-tetrahydrobenzo[b][1,6]naphthyridin-10-amine], for which the IC50 at PDE5 (Table 1, 100 nM FAM-cGMP) came to 5.4 nM.

For the molecule `COc1ccc(CNc2c3c(nc4ccc(C#N)cc24)CCNC3)cc1Cl` [G, 10-((3-chloro-4-methoxybenzyl)amino)-1,2,3,4-tetrahydrobenzo[b][1,6]naphthyridine-8-carbonitrile], the IC50 at PDE5 (Table 1, 100 nM FAM-cGMP) is 1.55 nM; with PDE6 it was above 100 nM.

At PDE5 (Table 3), `[2H]C([2H])(Nc1c2c(nc3ccc(C#N)cc13)CCN(C(C)=O)C2)c1ccc(OC)c(Cl)c1` [M] gave an IC50 of 0.044 nM.

On to `CCCc1nn(C)c2c(=O)[nH]c(-c3cc(S(=O)(=O)N4CCN(C)CC4)ccc3OCC)nc12` [sildenafil], for which the “effects on synaptic and cognitive abnormalities in APP/PS1 mice” value with APP/PS1 mice is “prolonged beneficial effects”.
